Reference: patent publication US20040102485A1, “Tartrate salt of thiazolidinedione derivative” (priority 2003, published 2004)

Assay: Solid state stability of the Meso-Tartrate (storage in glass bottle, HPLC assay for final content and degradation products)
Format: physicochemical
Conditions: 1 month
Description: Solid State Stability of the Meso-Tartrate, recorded for the product of Example 1 The solid state stability of the drug substance was determined by storing approximately 1.0 g of the material in a glass bottle at i) 40° C./75% Relative Humidity (RH), open exposure, for 1 month and b) at 50° C., closed, for 1 month. The material was assayed by HPLC for final content and degradation products in both cases.

[1] = 40° C./75% Relative Humidity (RH), open exposure

For CN(CCOc1ccc(CC2SC(=O)NC2=O)cc1)c1ccccn1.O=C(O)C(O)C(O)C(=O)O (stereo not drawn) [Example 1, 5-[4-[2-(N-methyl-N-(2-pyridyl)amino)ethoxy]benzyl]thiazolidine-2,4-dione Meso-Tartrate], the “HPLC assay (final content)” value [1] was 97 % initial, the “degradation (HPLC, degradation products)” value [1] was “No significant degradation observed” and the “HPLC assay (final content)” value (50° C., closed) was 98 % initial. The “degradation (HPLC, degradation products)” value (50° C., closed) was “No significant degradation observed”.
